Measured values: paper PMC10210221, “Interaction of Pexiganan (MSI-78)-Derived Analogues Reduces Inflammation and TLR4-Mediated Cytokine Secretion: A Comparative Study” (ACS Omega, 2023)
In brackets after ≈: the same amount, converted by molar mass. Where a SMILES comes first, the peptide text is derived from it. Where no end group is shown, it is not given here. [ ]: non-standard residue; d: D form.

Tests used:
Lactobacilli ATCC 25258 = assay type: cell-based; settings: ATCC 25258, 18 h
Description: (§1) The peptide’s minimal inhibitory concentration (MIC) was examined as previously described.[44] In brief, sterile 96-well U-bottom polystyrene plates were used to evaluate peptide activity. Bacterial cells including S. Typhi ATCC 14028s, E. coli ATCC 35218, S. aureus ATCC P8538, and Lactobacilli ATCC 25258 were cultured in Mueller Hinton broth (MHB) at 37 °C overnight. The cells were then washed, centrifuged, and re-suspended in MHB medium. Afterward, 50 μL aliquots of suspended bacteria (1 × 10^6 colony forming units, CFU mL^–1) were added to 50 μL BM2 medium, which contained peptides in serial twofold dilutions. The plates were then incubated at 37 °C for 18 h. The inhibition of growth was determined by measuring the absorbance at 600 nm using a microplate autoreader. The MIC was defined as the concentration at which 90% growth inhibition was observed after 18 h of incubation.

E. coli ATCC 35218 = assay type: cell-based, Escherichia coli; settings: ATCC 35218, 18 h
Description: as §1

pig erythrocytes = assay type: cell-based; settings: pH 7.3
Description: To examine the hemolytic properties of the peptides, a concentration of 100 μM was used. A 4% suspension of pig erythrocytes, freshly collected and washed three times in phosphate-buffered saline (PBS, pH 7.3), was used for this purpose. After incubation at 37 °C for 1 h, the suspension was centrifuged at 800g for 10 min, and the absorbance at 540 nm was measured. Complete hemolysis was determined by adding 1% Triton X-100, while adding only PBS was used to determine 0% hemolysis.The hemolysis calculation was as follows: % hemolysis = (ODPeptide – ODBuffer)/(ODTriton1% – ODBuffer) × 100.

[1] = XTT cytotoxicity / LD50 calculation; assay type: cell-based, murine; settings: mouse, RAW 264.7 cells (macrophages); peptides 2 h, then XTT 2 h; concentration at which 50% of cells were dead, from linear graph
Description: (§2) LD50 is the calculated amount of chemical that causes the death of 50% of the population tested, in this case, RAW 264.7. Each well was seeded with 1 × 10^5 cells 1 day before the experiment. Peptides were added in several doses and incubated with the cells for 2 h, followed by 2 h of XTT. We performed a linear graph and calculated the concentration in which 50% were dead.
(§3) DMEM supplemented with low endotoxin FBS (10%), L-glutamine (1%), sodium pyruvate (1%), pen–strep (1%), and unessential amino acids (1%) was used to grow RAW 264.7 cells at 37 °C in a humidified atmosphere containing 5% CO2 and 95% air. A 96-well Falcon plate was utilized for the assay, with each well containing 1 × 10^5 cells in a 200 μL medium, cultured overnight and washed with phosphate-buffered saline (PBS) before the experiment. Peptides were added to the wells at various concentrations for 2 h, followed by XTT with fresh medium for another 2 h. The optical density was measured at 450 nm using an enzyme-linked immunosorbent assay plate reader, and cell viability was determined relative to the control.

S. Typhi ATCC 14028s = assay type: cell-based, Salmonella Typhi; settings: ATCC 14028, 18 h
Description: as §1

S. aureus ATCC P8538 = assay type: cell-based, Staphylococcus aureus; settings: ATCC P8538, 18 h
Description: as §1

RAW 264.7 cells = test: XTT cytotoxicity / LD50 calculation; assay type: cell-based, murine; settings: XTT, RAW 264.7 macrophages
Description: as §2, §3

With `CC[C@H](C)[C@H](NC(=O)CNC(=O)[C@H](CCCCN)NC(=O)[C@H](CCCCN)NC(=O)[C@H](CCCCN)NC(=O)[C@H](CCCCN)NC(=O)[C@@H](N)CCCCN)C(=O)NCC(=O)N[C@H](Cc1ccccc1)C(=O)N[C@@H](CC(C)C)C(=O)N[C@@H](C)C(=O)N[C@H](Cc1ccccc1)C(=O)NCC(=O)N[C@@H](C)C(=O)N[C@@H](Cc1ccccc1)C(=O)N[C@H](C(=O)N[C@H](C(=O)N[C@@H](CC(C)C)C(=O)N[C@@H](CCCCN)C(=O)N[C@@H](CCCCN)C(=O)N[C@@H](CCCCN)C(=O)N[C@@H](CCCCN)C(N)=O)[C@@H](C)CC)C(C)C` [MSI-Seg-F2F] (H-KKKKKGIG[dF]LA[dF]GAFVILKKKK-NH2) the “MIC Lactobacilli ATCC 25258” value (Lactobacilli ATCC 25258) was 12.5 µM (≈ 31 µg/mL), the “MIC E. coli ATCC 35218” value (E. coli ATCC 35218) was 12.5 µM (≈ 31 µg/mL) and the “% hemolysis (100 μM)” value (pig erythrocytes) was 8.1 ± 3.2%. For the same molecule, the CC50 at 2 h [1] was greater than 100 µM, the “MIC S. Typhi ATCC 14028s” value (S. Typhi ATCC 14028s) was 25 µM (≈ 61.9 µg/mL) and the “MIC S. aureus ATCC P8538” value (S. aureus ATCC P8538) was 12.5 µM (≈ 31 µg/mL).

For “KKKKKGIGGLAGGAFVILKKKK-NH2 [MSI-Seg-F2G]”, the “MIC Lactobacilli ATCC 25258” value (Lactobacilli ATCC 25258) was greater than 50 µM, the “MIC E. coli ATCC 35218” value (E. coli ATCC 35218) was greater than 50 µM and the “% hemolysis (100 μM)” value (pig erythrocytes) was 1.2 ± 30.2%. The CC50 at 2 h [1] was greater than 100 µM, the “MIC S. Typhi ATCC 14028s” value (S. Typhi ATCC 14028s) was greater than 50 µM and the “MIC S. aureus ATCC P8538” value (S. aureus ATCC P8538) was 25 µM.

For KKKKKKKGIGFLAFGAFVKILK-NH2 [MSI-N7K], the “MIC Lactobacilli ATCC 25258” value (Lactobacilli ATCC 25258) was 25 µM, the “MIC E. coli ATCC 35218” value (E. coli ATCC 35218) was 25 µM and the “% hemolysis (100 μM)” value (pig erythrocytes) was 10 ± 5.6%. For the same molecule, the CC50 at 2 h [1] was 60.9 µM, the “Concentration toxic to RAW 264.7 cells” value (RAW 264.7 cells) was 60 µM and the “MIC S. Typhi ATCC 14028s” value (S. Typhi ATCC 14028s) was 25 µM. The “MIC S. aureus ATCC P8538” value (S. aureus ATCC P8538) was 25 µM.

With KKKKKGIGFLAFGAFVILKKKK-NH2 [MSI-Seg] the “MIC Lactobacilli ATCC 25258” value (Lactobacilli ATCC 25258) was greater than 50 µM, the “MIC E. coli ATCC 35218” value (E. coli ATCC 35218) was 12.5 µM and the “% hemolysis (100 μM)” value (pig erythrocytes) was 16.6 ± 4.2%. For the same molecule, the CC50 at 2 h [1] was greater than 100 µM, the “MIC S. Typhi ATCC 14028s” value (S. Typhi ATCC 14028s) was 25 µM and the “MIC S. aureus ATCC P8538” value (S. aureus ATCC P8538) was 12.5 µM.

In the case of “KKKKKFIGLFAGGIVLAFKKKK-NH2 [MSI-Seg-Scr]”, the “MIC Lactobacilli ATCC 25258” value (Lactobacilli ATCC 25258) is reported as 12.5 µM, the “MIC E. coli ATCC 35218” value (E. coli ATCC 35218) is reported as 12.5 µM and the “% hemolysis (100 μM)” value (pig erythrocytes) is reported as 3.9 ± 1.4%. The CC50 at 2 h [1] was greater than 100 µM, the “MIC S. Typhi ATCC 14028s” value (S. Typhi ATCC 14028s) was 25 µM and the “MIC S. aureus ATCC P8538” value (S. aureus ATCC P8538) was 12.5 µM.

With “GIGKFLKKAKKFGKAFVKILKK-NH2 [MSI-78, Pexiganan]” the “MIC Lactobacilli ATCC 25258” value (Lactobacilli ATCC 25258) was 1.56 µM, the “MIC E. coli ATCC 35218” value (E. coli ATCC 35218) was 3.12 µM and the “% hemolysis (100 μM)” value (pig erythrocytes) was 15.2 ± 1.1%. For the same molecule, the CC50 at 2 h [1] was 43.1 µM, the “Concentration toxic to RAW 264.7 cells” value (RAW 264.7 cells) was 40 µM and the “MIC S. Typhi ATCC 14028s” value (S. Typhi ATCC 14028s) was 12.5 µM. For the same molecule, the “MIC S. aureus ATCC P8538” value (S. aureus ATCC P8538) was 6.25 µM.
